Measured values taken from ChEMBL document CHEMBL2010711, “Synthesis and comparative evaluation of 4-oxa- and 4-aza-podophyllotoxins as antiproliferative microtubule destabilizing agents” (Bioorg Med Chem Lett, 2012).

Experiments:
Format in all cases: functional
CAKI-1 = experiment: Cytotoxicity against human CAKI-1 cells after 48 hrs by trypan blue dye exclusion assay; settings: CAKI-1, 48 h
MDA-MB-468 = experiment: Cytotoxicity against human MDA-MB-468 cells after 48 hrs by trypan blue dye exclusion assay; settings: MDA-MB-468, 48 h
LOX IMVI = experiment: Cytotoxicity against human LOXIMVI cells after 48 hrs by trypan blue dye exclusion assay
PC-3 = experiment: Cytotoxicity against human PC3 cells after 48 hrs by trypan blue dye exclusion assay; settings: PC-3, 48 h
OVCAR-3 = experiment: Cytotoxicity against human OVCAR3 cells after 48 hrs by trypan blue dye exclusion assay; settings: OVCAR-3, 48 h
Malme-3M = experiment: Cytotoxicity against human MALME-3M cells after 48 hrs by trypan blue dye exclusion assay
NCI-H23 = experiment: Cytotoxicity against human NCI-H23 cells after 48 hrs by trypan blue dye exclusion assay; settings: NCI-H23, 48 h
[1] = Cytotoxicity against human Hs 578T cells after 48 hrs by trypan blue dye exclusion assay
UACC-257 = experiment: Cytotoxicity against human UACC257 cells after 48 hrs by trypan blue dye exclusion assay; settings: UACC-257, 48 h
A549 = experiment: Cytotoxicity against human A549 cells after 48 hrs by trypan blue dye exclusion assay; settings: A549, 48 h
A498 = experiment: Cytotoxicity against human A498 cells after 48 hrs by trypan blue dye exclusion assay; settings: A498, 48 h
OVCAR-8 = experiment: Cytotoxicity against human OVCAR8 cells after 48 hrs by trypan blue dye exclusion assay; settings: OVCAR-8, 48 h
MDA-MB-435 = experiment: Cytotoxicity against human MDA-MB-435 cells after 48 hrs by trypan blue dye exclusion assay; settings: MDA-MB-435, 48 h
SW-620 = experiment: Cytotoxicity against human SW620 cells after 48 hrs by trypan blue dye exclusion assay; settings: SW-620, 48 h
M14 = experiment: Cytotoxicity against human M14 cells after 48 hrs by trypan blue dye exclusion assay; settings: M14, 48 h
MCF7 = experiment: Cytotoxicity against human MCF7 cells after 48 hrs by trypan blue dye exclusion assay; settings: MCF7, 48 h
UACC-62 = experiment: Cytotoxicity against human UACC62 cells after 48 hrs by trypan blue dye exclusion assay; settings: UACC-62, 48 h
SF-295 = experiment: Cytotoxicity against human SF295 cells after 48 hrs by trypan blue dye exclusion assay; settings: SF-295, 48 h
CCRF-CEM = experiment: Cytotoxicity against human CCRF-CEM cells after 48 hrs by trypan blue dye exclusion assay
MDA-MB-231 = experiment: Cytotoxicity against human MDA-MB-231 cells after 48 hrs by trypan blue dye exclusion assay; settings: MDA-MB-231, 48 h
RPMI-8226 = experiment: Cytotoxicity against human RPMI8226 cells after 48 hrs by trypan blue dye exclusion assay; settings: RPMI-8226, 48 h
NCI-H226 = experiment: Cytotoxicity against human NCI-H226 cells after 48 hrs by trypan blue dye exclusion assay; settings: NCI-H226, 48 h
SNB-75 = experiment: Cytotoxicity against human SNB75 cells after 48 hrs by trypan blue dye exclusion assay; settings: SNB-75, 48 h
K562 = experiment: Cytotoxicity against human K562 cells after 48 hrs by trypan blue dye exclusion assay; settings: K562, 48 h
HL-60(TB) = experiment: Cytotoxicity against human HL-60(TB) cells after 48 hrs by trypan blue dye exclusion assay; settings: HL-60, 48 h
TK-10 = experiment: Cytotoxicity against human TK10 cells after 48 hrs by trypan blue dye exclusion assay; settings: TK-10, 48 h
BT-549 = experiment: Cytotoxicity against human BT549 cells after 48 hrs by trypan blue dye exclusion assay; settings: BT-549, 48 h
OVCAR-4 = experiment: Cytotoxicity against human OVCAR4 cells after 48 hrs by trypan blue dye exclusion assay; settings: OVCAR-4, 48 h
NCI-H522 = experiment: Cytotoxicity against human NCI-H522 cells after 48 hrs by trypan blue dye exclusion assay; settings: NCI-H522, 48 h
COLO 205 = experiment: Cytotoxicity against human COLO205 cells after 48 hrs by trypan blue dye exclusion assay; settings: COLO 205, 48 h
EKVX = experiment: Cytotoxicity against human EKVX cells after 48 hrs by trypan blue dye exclusion assay
SK-MEL-2 = experiment: Cytotoxicity against human SK-MEL-2 cells after 48 hrs by trypan blue dye exclusion assay; settings: SK-MEL-2, 48 h
IGROV-1 = experiment: Cytotoxicity against human IGROV1 cells after 48 hrs by trypan blue dye exclusion assay; settings: IGROV-1, 48 h
HCT-116 = experiment: Cytotoxicity against human HCT116 cells after 48 hrs by trypan blue dye exclusion assay; settings: HCT-116, 48 h
SK-OV-3 = experiment: Cytotoxicity against human SKOV3 cells after 48 hrs by trypan blue dye exclusion assay; settings: SK-OV-3, 48 h
DU-145 = experiment: Cytotoxicity against human DU145 cells after 48 hrs by trypan blue dye exclusion assay; settings: DU-145, 48 h
SF-268 = experiment: Cytotoxicity against human SF268 cells after 48 hrs by trypan blue dye exclusion assay; settings: SF-268, 48 h
SN12C = experiment: Cytotoxicity against human SN12C cells after 48 hrs by trypan blue dye exclusion assay
HOP-92 = experiment: Cytotoxicity against human HOP92 cells after 48 hrs by trypan blue dye exclusion assay; settings: HOP-92, 48 h
UO-31 = experiment: Cytotoxicity against human UO31 cells after 48 hrs by trypan blue dye exclusion assay; settings: UO-31, 48 h
NCI-H460 = experiment: Cytotoxicity against human NCI-H460 cells after 48 hrs by trypan blue dye exclusion assay; settings: NCI-H460, 48 h
U-251 = experiment: Cytotoxicity against human U251 cells after 48 hrs by trypan blue dye exclusion assay; settings: U-251, 48 h
SF-539 = experiment: Cytotoxicity against human SF539 cells after 48 hrs by trypan blue dye exclusion assay; settings: SF-539, 48 h
HCT-15 = experiment: Cytotoxicity against human HCT15 cells after 48 hrs by trypan blue dye exclusion assay; settings: HCT-15, 48 h
ACHN = experiment: Cytotoxicity against human ACHN cells after 48 hrs by trypan blue dye exclusion assay
SK-MEL-28 = experiment: Cytotoxicity against human SK-MEL-28 cells after 48 hrs by trypan blue dye exclusion assay; settings: SK-MEL-28, 48 h
HOP-62 = experiment: Cytotoxicity against human HOP62 cells after 48 hrs by trypan blue dye exclusion assay; settings: HOP-62, 48 h
SNB-19 = experiment: Cytotoxicity against human SNB19 cells after 48 hrs by trypan blue dye exclusion assay; settings: SNB-19, 48 h
NCI/ADR-RES = experiment: Cytotoxicity against human NCI/ADR-RES cells after 48 hrs by trypan blue dye exclusion assay
RXF 393 = experiment: Cytotoxicity against human RXF393 cells after 48 hrs by trypan blue dye exclusion assay; settings: RXF 393, 48 h
SK-MEL-5 = experiment: Cytotoxicity against human SK-MEL-5 cells after 48 hrs by trypan blue dye exclusion assay; settings: SK-MEL-5, 48 h
786-0 = experiment: Cytotoxicity against human 786-0 cells after 48 hrs by trypan blue dye exclusion assay; settings: 786-0, 48 h
KM12 = experiment: Cytotoxicity against human KM12 cells after 48 hrs by trypan blue dye exclusion assay; settings: KM12, 48 h
HCC 2998 = experiment: Cytotoxicity against human HCC2998 cells after 48 hrs by trypan blue dye exclusion assay; settings: HCC 2998, 48 h
T47D = experiment: Cytotoxicity against human T47D cells after 48 hrs by trypan blue dye exclusion assay
HT-29 = experiment: Cytotoxicity against human HT-29 cells after 48 hrs by trypan blue dye exclusion assay; settings: HT-29, 48 h
MOLT-4 = experiment: Cytotoxicity against human MOLT4 cells after 48 hrs by trypan blue dye exclusion assay; settings: MOLT-4, 48 h
NCI-H322M = experiment: Cytotoxicity against human NCI-H322M cells after 48 hrs by trypan blue dye exclusion assay
SR = experiment: Cytotoxicity against human SR cells after 48 hrs by trypan blue dye exclusion assay

## COc1cc([C@@H]2c3cc4c(cc3[C@H](O)[C@H]3COC(=O)[C@H]23)OCO4)cc(OC)c1OC [PODOFILOX]
CAKI-1
  GI50: 89.7 nM
MDA-MB-468
  GI50: 10 nM
LOX IMVI
  GI50: 10 nM
PC-3
  GI50: 10 nM
OVCAR-3
  GI50: 11.3 nM
Malme-3M
  GI50: 47300 nM
NCI-H23
  GI50: 10 nM
[1]
  GI50: 10 nM
UACC-257
  GI50: 10 nM
A549
  GI50: 13.8 nM
A498
  GI50: 10 nM
OVCAR-8
  GI50: 10 nM
MDA-MB-435
  GI50: 10 nM
SW-620
  GI50: 10 nM
M14
  GI50: 13.1 nM
MCF7
  GI50: 10 nM
UACC-62
  GI50: 10 nM
SF-295
  GI50: 10 nM
CCRF-CEM
  GI50: 10 nM
MDA-MB-231
  GI50: 10 nM
RPMI-8226
  GI50: 10 nM
NCI-H226
  GI50: 10 nM
SNB-75
  GI50: 659 nM
K562
  GI50: 215 nM
HL-60(TB)
  GI50: 10 nM
TK-10
  GI50: 30.5 nM
BT-549
  GI50: 10 nM
OVCAR-4
  GI50: 17.5 nM
NCI-H522
  GI50: 10 nM
COLO 205
  GI50: 10 nM
EKVX
  GI50: 10 nM
SK-MEL-2
  GI50: 14.9 nM
IGROV-1
  GI50: 13.2 nM
HCT-116
  GI50: 10 nM
SK-OV-3
  GI50: 10 nM
DU-145
  GI50: 10 nM
SF-268
  GI50: 10 nM
SN12C
  GI50: 17.1 nM
HOP-92
  GI50: 34.1 nM
UO-31
  GI50: 16.6 nM
NCI-H460
  GI50: 10.6 nM
U-251
  GI50: 10.7 nM
SF-539
  GI50: 10 nM
HCT-15
  GI50: 13.5 nM
ACHN
  GI50: 10 nM
SK-MEL-28
  GI50: 10 nM
HOP-62
  GI50: 21.1 nM
SNB-19
  GI50: 10 nM
NCI/ADR-RES
  GI50: 10 nM
RXF 393
  GI50: 10 nM
SK-MEL-5
  GI50: 10 nM
786-0
  GI50: 16.9 nM
KM12
  GI50: 10 nM
HCC 2998
  GI50: 12.3 nM
T47D
  GI50: 84500 nM
HT-29
  GI50: 10 nM
MOLT-4
  GI50: 10 nM
NCI-H322M
  GI50: 10 nM
SR
  GI50: 10 nM
